Assay results: patent US20200155478A1, “XIBORNOL FOR USE IN THE TREATMENT OF ACNE VULGARIS” (ABIOGEN PHARMA S.P.A., priority 2017, published 2020)
Values after ≈ are worked out from the molar mass of the structure shown.

What was measured:
[1] = Dissolution of xibornol in 4% isopropanol; format: physicochemical
Method: In order to perform the antimicrobial tests in aqueous solutions (broth and agar), said xibornol, a lipophilic molecule, was dissolved in a hydrophilic solvent, and more specifically in isopropanol.

[2] = tested on: Propionibacterium acnes; experiment: Determination of the minimum bactericidal concentration (MBC), inoculation on RCA plates; format: cell-based
Method: (§1) Two strains of Propionibacterium acnes were used for this test: the Grerath strain (ATCC-11827) and the VPI 0389 strain (ATCC-6919).
(§2) Clostridial differential broth (CDB, liquid medium) and reinforced clostridial agar (RCA, solid medium) were used for the culture. Growth occurred under anaerobic conditions obtained in a 7.0 L GENBOX JAR.
(§3) The anaerobic conditions were obtained by activating the Anaerocult A preparation and the anaerobiosis control was assessed by using ANAEROTEST strips for microbiology.
(§4) The Propionibacterium acnes was incubated at 37° C. for 72 hours.
To determine the minimum bactericidal concentration (MBC), 10 μl of solution was taken from each well on the above described plate and inoculated on RCA plates containing the same concentrations of xibornol in 4% isopropanol present in the wells of the plate.

[3] = tested on: RHE EPISKIN artificial epidermis; experiment: Skin irritation and sensitisation test (OECD TG 404), MTT viability; format: cell-based, human; conditions: liquid formulations of xibornol, isopropanol and PBS buffer; 42' contact, assessed after 42 hours
Method: In order to establish the usable concentrations of xibornol in solution for the production of pharmaceutical forms intended for external topical use, a skin irritation and sensitisation test was carried out, according to standard OECD TG 404, method B.4, Annex V, Directive 67/548/EEC. A RHE EPISKIN artificial epidermis unit was used for the test. The kit consisted of 24 reconstructed epidermis units with a total area of 0.33 cm^2. Each unit consisted of a collagen matrix with a stratified, differentiated epidermis derived from human keratinocytes placed on top thereof. The substances to be tested were placed in contact (42′) with the epidermis and the effects assessed after 42 hours, incubating the units with MTT (3-(4,5-dimethylthiazol-2-yl)-2,5-diphenyltetrazolium bromide) which, under the experimental conditions, reduced to formazan upon contact with metabolically active cells, turning the coloured solution from yellow into blue. Since the obtained colour is directly proportional to the concentration of formazan, and therefore to the cell viability, after incubation with MTT for 3 hours, optical density readings were taken by using the spectrophotometer (DO 572-650 nm).

[4] = tested on: Propionibacterium acnes; experiment: Determination of the minimum inhibitory concentration (MIC), 96-well broth plate, OD 600 nm and PrestoBlue; format: cell-based
Method: as §1, §2, §3, §4
Propionibacterium acnes strains were reactivated from ATCC vials, rehydrated with CDB medium, and then seeded on RCA plates.
To cultivate Propionibacterium acnes in broth, isolated colonies were taken from culture plates and inoculated in the CBD medium.
After culturing, the concentration of bacterial cells was normalised using the McFarland 0.5 standard.
A 96-well plate was prepared in order to establish the minimum inhibitory concentration; the xibornol was dissolved in a 4% isopropanol solution in various concentrations, and the samples were prepared according to the experimental plan shown in the following table 1.
All the wells in rows D, E, F and the first three wells from the left in row H contained Propionibacterium acnes at the final concentration of 5×10^5 bacteria/mL.
Row G (wells 1, 2, 3) was the negative control and contained only the culture medium, without bacteria, xibornol, or isopropanol.
Row H (wells 1,2,3) was the positive control and contained the bacterial culture without xibornol or isopropanol.
Unmarked wells were empty.
The reading of the plate, after an incubation under anaerobic conditions at 37° C., was performed after 72 hours.
A first spectrophotometer reading was taken, including measurement of the OD (optical density) at 600 nm.
To highlight the presence or absence of bacterial growth on the plate described above, PrestoBlue was also used, which is a resazurin-based solution which uses the reducing power of cells to measure cell proliferation. Said solution is blue and turns into red upon contact with live bacterial cells.
After having incubated the plate with the PrestoBlue and read the fluorescence values by using a Victor 3 Wallac microplate reader, the data were confirmed.

[5] = tested on: inflammatory cytokine IL-8; experiment: Mouse model for Acne vulgaris induced by Propionibacterium acnes, IL-8 ELISA in ear homogenate supernatants; format: in vivo, Balb/c strain mice
Method: For the experiment, female Balb/c strain mice were used, grouped according to the experimental plan shown below in Table 5: [table] The sham group consisted of mice which received an intradermal injection, in each ear, of 25 μl of D-PBS (Dulbecco's phosphate buffered saline), while the other two groups consisted of mice which received an intradermal injection, in each ear, of 25 μl of D-PBS containing 10^8 CFU (colony-forming units) of Propionibacterium acnes. As of the day following the injection: • the sham group of mice was not treated; • the control group was treated, once a day, for 7 consecutive days, directly to the sites of inoculation of the bacterium, with a topical application of the formulation without active principle, i.e. with the carrier, consisting of three parts of paraffin oil and two parts of filamentary vaseline; • the […], once a day, for 7 consecutive days, directly to the sites of inoculation of the bacterium), with a topical application of the formulation containing xibornol in a concentration of 0.1% (corresponding to 0.79 mg/mL) in the carrier, consisting of three parts of paraffin oil and two parts of filamentary vaseline. The mice were sacrificed 24 hours after the last topical application. […]

Cc1cc(O)c(C2CC3CCC2(C)C3(C)C)cc1C (racemic) [xibornol, 4,5-dimethyl-2-[1,7,7-trimethylbicyclo[2.2.1]heptan-2-yl]phenol]
amount of xibornol dissolved by 4% isopropanol [1]: up to 1200 μg/mL | minimum bactericidal concentration (MBC) ([2]; 10 μl from each well inoculated on RCA plates with the same xibornol concentrations in 4% isopropanol): 9.37 µg/mL (≈ 36.3 µM) | MBC ([2]; Cutibacterium acnes, 10 μl from each well inoculated on RCA plates with the same xibornol concentrations in 4% isopropanol): 4.69 to 9.37 µg/mL (≈ 18.1 to 36.3 µM) | growth on RCA plates ([2]; xibornol 4.69 μg/mL): massive growth, comparable to that of the positive control | concentration of xibornol administrable topically without irritation or sensitisation of the epidermis [3]: less than 5 mg/mL | concentration of xibornol administrable topically without irritation or sensitisation of the epidermis, even more preferably [3]: less than 2.5 mg/mL | MIC ([4]; Cutibacterium acnes, ATCC 11827 / ATCC 6919, 72 h, strains ATCC-11827 and ATCC-6919, anaerobic, 37° C., 72 hours, xibornol racemate in 4% isopropanol): 4.69 to 9.37 µg/mL (≈ 18.1 to 36.3 µM) | antibacterial efficacy compared with clindamycin ([4]; Propionibacterium acnes): comparable to that of clindamycin | minimum inhibitory concentration (MIC) ([4]; strains ATCC-11827 and ATCC-6919, anaerobic, 37° C., 72 hours, xibornol racemate in 4% isopropanol): 9.37 µg/mL (≈ 36.3 µM) | bacterial growth in wells ([4]; xibornol at 4.69 μg/mL, 2.34 μg/mL, 1.17 μg/mL, 72 hours, PrestoBlue red colour): bacterial growth was observed | Average concentration of IL-8 ([5]; 0.1% xibornol (0.79 mg/mL) in paraffin oil/vaseline carrier, topical once a day for 7 days, ear homogenate supernatant): 190.61 pg/mL | change in IL-8 levels with respect to the control group ([5]; 0.1% xibornol topical, once a day for 7 days): significant reduction
